Patent EP2605769B1, “BENZOQUINONE DERIVATIVES FOR THE TREATMENT OF MITCHONDRIAL EYE DISEASES” (Santhera Pharmaceuticals (Schweiz) AG, priority 2010, dated 2012)
Where two headings read alike, the source gives them in different places.

Key:
C57BL/6J mice = experiment: Optomotor testing of visual acuity in the rotenone mouse model; format: in vivo; settings: for Number of counterclockwise head movements/ 2 min / Number of clockwise head movements/ 2 min: 5 weeks after injection, ± SEM; for Number of counterclockwise head movements/ 2 min: non-injected eye; for Number of clockwise head movements/ 2 min: rotenone-injected eye; for Number of head movements: 2000 mg/kg in diet, mean ± SEM
Experimental: Since RGC loss is associated with visual acuity impairment, we tested whether the neuroprotective effect of the test compound IA also correlated with recovery of visual function. For this purpose, visual acuity was detected by quantifying the optomotor response of animals subjected to the test system described above. The optomotor response was measured as previously described (see […]., et al. Vis. Res., 2005). Mice were placed on a central platform surrounded by a motorized drum with black and white vertical stripes that can rotate in both, clockwise and counterclockwise, direction at different velocities (which can be adjusted to evoke the optimal optokinetic response), and under constant light levels. Mice were allowed to habituate for 5 min to the experimental conditions before stripes were rotated alternately clockwise and counterclockwise, for 2 min in each direction and with an interval of 30 s between the two rotations. The mice were recorded on a computer using a digital video camera mounted above the apparatus to subsequently score the number of head movements by manual counting. Head movements were scored only when the angular speed of the head turn corresponds to that of the drum rotation. After aquisition and encoding by an investigator, a second, blinded investigator conducted all assessments. Codes were broken upon completion of data acquisition by a third investigator. Each mouse was tested at different time points and the apparatus will be cleaned between mice. Data will be presented as mean ± SEM. Paired Student's t-test and analysis of variance (ANOVA) will be used to compare non-normalized data. Statistical significance will be set at p≤0.05(*), p≤0.01(**) and p≤0.001 (***). Table 7: Effect of idebenone pre-treatment on visual acuity in an in vivo mouse model for LHON. Quantification of mouse visual acuity based on the optomotor response in mice pre-treated for 3 weeks with vehicle and idebenone 2000 mg/kg in diet. […] The optomotor response was examined in both clockwise (a) and counterclockwise (b) directions of motion, clockwise and counterclockwise tracking head movements reflecting visual acuity of the rotenone-injected (left) and non-injected (right) eye, respectively.

[1] = Pharmacokinetic analysis in plasma and eye fluids after oral administration; format: in vivo, mice; settings: for Kp: single oral 400 mg/kg; for AUC(0-t): read-out: AUC0-6h
Experimental: Pharmacokinetic analysis of test compounds after oral administration aims to determine its bioavailability and clearance in the plasma and in the eye fluids (aqueous and vitreous humor). The test compounds are quantified in the plasma and in the aqueous and vitreous humor after acute and repeated treatment (with different routes of administration). The time-dependent concentration is then determined and pharmacokinetic parameters (Cmax, AUC0-t, tmax) are calculated.
Experimental procedure: Male wild-type C57BL/6J mice (7 weeks old, about 25 g body weight) are individually housed in Makrolon type II cages with standard bedding and free access to food and water under a regular 12-hours light-dark cycle (8 a.m. to 8 p.m.). Mice receive single or daily repeated oral doses of the test compounds (ranging from 20 to 2000 mg/kg of body weight) or the vehicle administered though the diet or by gavage at the end of the light phase. The treatment can be followed by a washout period. Samples for pharmacokinetic analysis are taken at different time intervals following compound administration. Mice are anesthetized by 5% isofluran inhalation in an induction chamber and sacrificed by cervical dislocation. Blood is collected from the head cut for plasma extraction. Eye balls are dissected out to collect aqueous and vitreous humor. Samples are snap frozen in liquid nitrogen and stored (-80°C) until analyzed by LC-MS/MS and accordingly to standardized procedures. All mouse procedures are performed in accordance with the Swiss regulation and under a license approved by the "Kantonales Veterinäramt Basel-Land".
The pharmacokinetic profile of idebenone (compound IA) was assessed, following a single oral gavage dose to male mice. […] Furthermore, the ratio (vitreous humor /plasma and aqueous humor/plasma) appeared to be independent of the time post dose, consistent with a lack of accumulation of idebenone in the eye. The overall extent of exposure to idebenone in the vitreous humor, as measured by AUC0-6h, represented about 2 % of that observed in plasma (vitreous/plasma ratio; Table 8). Similarly, the extent of exposure to idebenone in the aqueous humor represented about 3 % of that observed in plasma (aqueous/plasma ratio; Table 8).

[2] = rats, cited from earlier work
[3] = Literature plasma and brain levels after oral dosing (Torii et al., Nagai et al.); format: in vivo; settings: rats, oral 10 mg/kg
Experimental: Beyond the high first-pass effect, a further drawback of compounds of formula (I), and again exemplified with compound IA as a representative for this compound class, is the fact, that these compounds are reaching the brain only in very limited amounts when given orally. For example, it is known from the literature (Torii H, Yoshida K, Kobayashi T, Tsukamoto T, Tanayama S. J Pharmacobiodyn. 1985 Jun;8(6):457-67) that an oral dose of 10 mg/kg of idebenone (compound IA) in rats leads to plasma levels of approximately 1000 ng/ml of total idebenone as measured by radioactivity after oral dosing of radioactive labeled compound IA. The total concentration means idebenone including its metabolites. […] The corresponding levels in the brain are 10 ng/ml of total idebenone (which again means including the metabolites), resulting in only 0.03 ng/ml for parent idebenone itself. As a result, the ratio of brain vs plasma levels is about 1%. This is in line with the findings of Nagai et al (Nagai Y, Yoshida K, Narumi S, Tanayama S, Nagaoka A. Brain distribution of idebenone and its effect on local cerebral glucose utilization in rats. Arch Gerontol Geriatr. 1989;8(3):257-72), where higher oral doses of idebenone (100 mg/kg) are leading to similar low brain- to-plasma ratio of 1-2% in rats.

[4] = C57BL/6J, mouse, Aqueous Humor, single oral administration at 400 mg/kg, male mice
[5] = C57BL/6J, mouse, Plasma, single oral administration at 400 mg/kg, male mice
[6] = C57BL/6J, mouse, Vitreous Humor, single oral administration at 400 mg/kg, male mice
[7] = oral dose of 10 mg/kg, Torii et al.
[8] = correction factor calculated from Torii et al

Compound: COC1=C(OC)C(=O)C(CCCCCCCCCCO)=C(C)C1=O [Compound IA, Idebenone]
- Number of counterclockwise head movements/ 2 min (C57BL/6J mice; 2000 mg/kg + rotenone 1 mM): 12.5 ± 4.5 head movements/2 min
- Number of clockwise head movements/ 2 min (C57BL/6J mice; 2000 mg/kg + rotenone 1 mM): 9 ± 2 head movements/2 min
- Number of counterclockwise head movements/ 2 min (C57BL/6J mice; 2000 mg/kg + rotenone 5 mM): 10.5 ± 0.6 head movements/2 min
- Number of clockwise head movements/ 2 min (C57BL/6J mice; 2000 mg/kg + rotenone 5 mM): 3.5 ± 1.5 head movements/2 min
- Number of head movements (C57BL/6J mice; time post-injection 1 day): 0 ± 0 (n=7) head movements/2 min
- Number of head movements (C57BL/6J mice; time post-injection 7 days): 0.5 ± 0.5 (n=7) head movements/2 min
- Number of head movements (C57BL/6J mice; time post-injection 14 days): 1.8 ± 0.8 (n=7) head movements/2 min
- Number of head movements (C57BL/6J mice; time post-injection 21 days): 2.8 ± 1.4 (n=7) head movements/2 min
- Number of head movements (C57BL/6J mice; time post-injection 28 days): 2.8 ± 1.4 (n=7) head movements/2 min
- Number of head movements (C57BL/6J mice; time post-injection 35 days): 3.5 ± 1.5 (n=7) head movements/2 min
- Number of head movements (C57BL/6J mice; time post-injection 56 days): 6 ± 2.1 (n=4) head movements/2 min
- Number of head movements (C57BL/6J mice; time post-injection -7 days): 9.7 ± 0.7 (n=7) head movements/2 min
- Kp ([1]; C57BL/6J, mouse, aqueous humor / plasma, male mice, read-out: extent of exposure in the aqueous humor relative to plasma): ~0.03
- Kp ([1]; C57BL/6J, mouse, vitreous humor / plasma, male mice, read-out: extent of exposure in the vitreous humor (AUC0-6h) relative to plasma): ~0.02
- Cmax [1, 4]: 86.2 ng/mL
- Tmax [1, 4]: 15 min
- AUC(0-t) [1, 4]: 62.6 ng·h/mL
- AUC(0-inf) [1, 5]: 1960 ng·h/mL
- Cmax [1, 5]: 1070 ng/mL
- Tmax [1, 5]: 15 min
- half-life [1, 5]: 102 min
- AUC(0-t) [1, 5]: 1860 ng·h/mL
- Cmax [1, 6]: 37.9 ng/mL
- Tmax [1, 6]: 15 min
- AUC(0-t) [1, 6]: 38.1 ng·h/mL
- λz ([1]; Plasma, single oral administration at 400 mg/kg, male mice): 0.409 h⁻¹
- time of maximum in vitreous and aqueous humors (up-take into the eye) ([1]; oral dietary or gavage administration, mouse, post-dose): < 15 min
- time of maximum concentration in plasma, vitreous and aqueous humors ([1]; single oral dose of 400 mg/kg, first sampling time post-dose): 15 min
- brain- to-plasma ratio ([2]; oral 100 mg/kg, Nagai et al): 1-2%
- levels in the brain of total idebenone (including metabolites) [2, 7]: 10 ng/mL
- plasma levels of total idebenone (including metabolites, by radioactivity) [2, 7]: approximately 1000 ng/ml
- Kp ([3]; rat, brain / plasma, read-out: ratio of brain vs plasma levels): ~0.01
- idebenone plasma levels (unmetabolized parent) [3, 8]: 3 ng/mL
- levels in the brain of parent idebenone [3, 8]: 0.03 ng/mL
